Test results: patent US20090318491A1 (priority 2006, published 2009)

Legend:
α3β4* nAChR = target: T1, α3β4* nAChR (Bos taurus, UniProt Q07263+Q8SPU6); assay: biochemical; format: binding, calf
T1 construct: 100 μL of the calf adrenal membrane protein fraction (60-70 μg); from tissue; host or cells: calf adrenals, membrane fraction
Description: Preparation of Calf Adrenals
Frozen calf adrenals (−80° C.) were placed on ice for 30-60 min and allowed to thaw slowly before they were cut into small pieces. After determination of the wet weight (4-6 g), the tissue was homogenised in HSS-buffer (Ultraturrax at 750 rpm). The homogenate was centrifuged (30,000×g, 10 min, 4° C.), the pellets collected and washed. This procedure was repeated five times. The buffer volume used to re-suspend the pellets was calculated on the basis of the wet weight in a ratio 1:6.5.
The prepared tissues were stored in aliquots at −80° C. One hour before the experiments the tissues were slowly thawed, homogenised in HSS-buffer and centrifuged (25,000×g, 20 min, 4° C.). The pellets were re-suspended in fresh HSS-buffer and used for radioligand binding assays.
Competition Assay Using (±)-[^3H]Epibatidine ([^3H]Epi) and Calf Adrenals Membrane Fraction (α3β4*nAChR)
Each assay sample, with a total volume of 500 μL contained 200 μL of the test compound, 100 μL of (±)-[^3H]epibatidine, 100 μL of the calf adrenal membrane protein fraction (60-70 μg) and 100 μM of HSS-buffer. Non-specific binding was determined in the presence of 300 μM (−)-nicotine tartrate salt. The samples were homogenised and incubated for 90 min at 22° C. The incubation was terminated by vacuum filtration through glass fibre filters presoaked in 1% poly(ethyleneimine). The filters were rinsed three times with TRIS-buffer, punched out and transferred into 4 mL scintillation vials. The scintillation vials were filled with scintillation cocktail (2 mL) and the radioactivity was measured using a liquid scintillation counter.

(α1)2β1γδ nAChR = target: T2, (α1)2β1γδ nAChR (Tetronarce californica, UniProt P02710+P02714+P02718); assay: biochemical; format: binding, Torpedo californica
T2 construct: 100 μL of the Torpedo californica electroplax fraction (60-70 μg); from tissue; host or cells: Torpedo californica electric organ (electroplax) membranes
Description: Preparation of Torpedo californica Electroplax
Frozen samples of Torpedo californica electric organ (−80° C.) were placed on ice for 30-60 min and allowed to thaw slowly before the membrane preparation. The tissue was homogenised in an ice-cold HSS-buffer (Ultraturrax at 750 rpm) and centrifuged (30,000×g, 10 min, 4° C.). The pellets were collected, washed four times with HSS-buffer through re-homogenization and centrifugation at the same settings. The remaining pellets were collected, re-suspended in HSS and stored in aliquots at −80° C.
One hour before the experiments the tissues were slowly thawed, homogenised in HSS-buffer and centrifuged (25,000×g, 20 min, 4° C.). The pellets were re-suspended in fresh HSS-buffer and used for radioligand binding assays.
Competition Assay Using (±)-[^3H]Epibatidine ([^3H]Epi) and Torpedo californica Electroplax ((α1)2β1γδ nAChR)
(§1) A dilution row of 6-9 concentrations of the test compound was prepared. Each assay sample, with a total volume of 500 μL contained 200 μL of the test compound, 100 μL of (±)-[^3H]epibatidine and 100 μL of the Torpedo californica electroplax fraction (60-70 μg). Non-specific binding was determined in the presence of 300 μM (−)-nicotine tartrate salt. The samples were homogenised and incubated for 90 min at 22° C. The incubation was terminated by vacuum filtration through glass fibre filters pre-soaked in 1% poly(ethyleneimine). The filters were rinsed three times with TRIS-buffer, punched out and transferred into 4 mL scintillation vials. The scintillation vials were filled with scintillation cocktail (2 mL) and the radioactivity was measured using a liquid scintillation counter.
Assays were carried out in duplicates, triplicate or quadruplicates.
(§2) Biological evaluation of the compounds on various nicotinic actylcholine receptors (nAChRs) was conducted with cells described below. […] Functional agonist activity of the cytisines in cells using a fluorescence assay sensitive to changes in cytosolic calcium.

α4β2* nAChR = target: T3, α4β2* nAChR (Rattus norvegicus, UniProt P09483+P12390); assay: biochemical; format: binding
T3 construct: Frozen rat brains were thawed slowly before the preparation of the P2 rat brain membrane fraction; from tissue; host or cells: rat brain (without cerebellum and medulla), P2 membrane fraction
Description: (§3) Preparation of Rat Brains
(§4) Frozen rat brains were thawed slowly before the preparation of the P2 rat brain membrane fraction (30-60 min on ice, afterwards at room temperature). […] After the determination of the wet weight (1.32 g on average), the brains were pressed into a pulp using a syringe and homogenised in saccharose buffer with a glass teflon homogenizator (Potter, 10 seconds). The tissue was then centrifuged (1,000×g, 20 min, 4° C.), the supernatant (S1) aspirated with a Pasteur pipette and stored on ice. The P1 pellet was re-suspended in saccharose buffer and the centrifugation was repeated. The supernatant S1′ was collected and added to the supernatant S1. The combined supernatants were centrifuged (25,000×g, 20 min, 4° C.), the supernatant S2 was removed and the pellet P2 collected and diluted with HSS-buffer. The buffer volume added was calculated on the basis of the wet weight in a ratio 1:2.
(§5) The final pellet was stored in aliquots at −80° C. On the day of the experiment, the P2 membrane fraction was thawed, diluted with HSS-buffer (30-fold volume), homogenised and centrifuged (35,000×g, 10 min, 4° C.). The collected pellet was suspended in HSS-buffer and used in the radioligand binding experiments.
Competition Assay Using (±)-[^3H]Epibatidine ([^3H]Epi) and Rat Brain P2-Fraction (α4β2*nAChR)
as §1, with “contained 100 μL of the membrane protein (60 μg), 100 μL of (±)-[^3H]epibatidine (0.5 nM), 100 μL of HSS-buffer and” for “contained”, “test compound” for “test compound, 100 μL of (±)-[^3H]epibatidine and 100 μL of the Torpedo californica electroplax fraction (60-70 μg).”, “The filter” for “The filters”
Assays were carried out in duplicate, triplicates or quadruplicates.
as §2

α7* nAChR = target: T4, α7* nAChR (Rattus norvegicus, UniProt Q05941); assay: Competition assay using [3H]methyllycaconitine and rat brain P2-fraction; format: binding; conditions: preliminary results; read-out: α7* [3H]MLA rat brain Ki
T4 construct: Frozen rat brains were thawed slowly before the preparation of the P2 rat brain membrane fraction; from tissue; host or cells: rat brain P2 membrane fraction
Description: as §3, §4, §5
Competition Assay Using [^3H]Methyllycaconitine ([^3H]MLA) and Rat Brain P2-Fraction (α7*nAChR)
A dilution row of 6-9 concentrations of the test compound was prepared. Each assay sample, with a total volume of 250 μL contained 50 μL of the test compound, 100 μL of [^3H]MLA and 100 μL of the P2-membrane protein fraction (60-70 μg). Non-specific binding was determined in the presence of 1 μM MLA. The samples were homogenised and incubated for 120 min at 22° C. The incubation was terminated by vacuum filtration through glass fibre filters pre-soaked in 1% poly(ethyleneimine). The filters were rinsed three times with TRIS-buffer, punched out and transferred into 4 mL scintillation vials. The scintillation vials were filled with scintillation cocktail (2 mL) and the radioactivity was measured using a liquid scintillation counter.
Assays were carried out in duplicates, triplicates or quadruplicates.

T4 sequence (Q05941 23-502): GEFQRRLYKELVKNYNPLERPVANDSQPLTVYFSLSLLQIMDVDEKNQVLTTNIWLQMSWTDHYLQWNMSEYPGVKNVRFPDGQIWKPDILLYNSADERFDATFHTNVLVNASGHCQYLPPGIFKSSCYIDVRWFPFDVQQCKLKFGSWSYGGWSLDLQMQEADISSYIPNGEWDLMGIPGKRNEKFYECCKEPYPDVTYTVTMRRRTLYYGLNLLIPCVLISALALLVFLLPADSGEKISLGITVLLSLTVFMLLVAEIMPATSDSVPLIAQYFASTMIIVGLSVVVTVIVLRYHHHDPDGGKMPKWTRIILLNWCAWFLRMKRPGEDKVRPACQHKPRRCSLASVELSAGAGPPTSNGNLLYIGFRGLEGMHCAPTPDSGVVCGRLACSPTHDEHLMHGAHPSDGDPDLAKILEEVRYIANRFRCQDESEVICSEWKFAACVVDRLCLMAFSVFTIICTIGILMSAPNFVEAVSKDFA
T1 sequence (Q07263 22-495): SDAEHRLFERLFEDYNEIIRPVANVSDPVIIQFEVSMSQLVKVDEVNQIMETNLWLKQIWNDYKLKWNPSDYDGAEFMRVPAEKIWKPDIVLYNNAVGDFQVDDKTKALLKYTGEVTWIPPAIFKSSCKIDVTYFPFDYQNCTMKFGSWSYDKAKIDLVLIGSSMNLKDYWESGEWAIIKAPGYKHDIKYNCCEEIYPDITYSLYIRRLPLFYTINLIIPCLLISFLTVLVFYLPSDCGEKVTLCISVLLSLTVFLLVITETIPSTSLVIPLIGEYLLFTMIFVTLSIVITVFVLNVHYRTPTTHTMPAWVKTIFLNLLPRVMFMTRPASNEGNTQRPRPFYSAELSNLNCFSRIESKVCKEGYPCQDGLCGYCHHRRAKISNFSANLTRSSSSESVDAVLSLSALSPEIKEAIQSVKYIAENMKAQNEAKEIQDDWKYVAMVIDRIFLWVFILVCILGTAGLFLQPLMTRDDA
T1 sequence (Q8SPU6 20-496): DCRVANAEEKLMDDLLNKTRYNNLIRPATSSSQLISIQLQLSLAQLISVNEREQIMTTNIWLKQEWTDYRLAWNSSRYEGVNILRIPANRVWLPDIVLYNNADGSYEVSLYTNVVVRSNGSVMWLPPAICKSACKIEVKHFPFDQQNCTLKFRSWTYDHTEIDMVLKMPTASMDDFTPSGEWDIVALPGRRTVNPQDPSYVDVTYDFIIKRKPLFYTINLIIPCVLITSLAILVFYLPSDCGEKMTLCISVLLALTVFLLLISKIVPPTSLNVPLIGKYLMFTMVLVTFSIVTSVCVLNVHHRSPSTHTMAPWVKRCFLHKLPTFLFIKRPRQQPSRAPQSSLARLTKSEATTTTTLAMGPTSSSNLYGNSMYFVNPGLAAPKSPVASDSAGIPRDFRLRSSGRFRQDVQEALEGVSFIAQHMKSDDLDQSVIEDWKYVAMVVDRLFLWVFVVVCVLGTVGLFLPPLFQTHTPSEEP
T3 sequence (P12390 25-500): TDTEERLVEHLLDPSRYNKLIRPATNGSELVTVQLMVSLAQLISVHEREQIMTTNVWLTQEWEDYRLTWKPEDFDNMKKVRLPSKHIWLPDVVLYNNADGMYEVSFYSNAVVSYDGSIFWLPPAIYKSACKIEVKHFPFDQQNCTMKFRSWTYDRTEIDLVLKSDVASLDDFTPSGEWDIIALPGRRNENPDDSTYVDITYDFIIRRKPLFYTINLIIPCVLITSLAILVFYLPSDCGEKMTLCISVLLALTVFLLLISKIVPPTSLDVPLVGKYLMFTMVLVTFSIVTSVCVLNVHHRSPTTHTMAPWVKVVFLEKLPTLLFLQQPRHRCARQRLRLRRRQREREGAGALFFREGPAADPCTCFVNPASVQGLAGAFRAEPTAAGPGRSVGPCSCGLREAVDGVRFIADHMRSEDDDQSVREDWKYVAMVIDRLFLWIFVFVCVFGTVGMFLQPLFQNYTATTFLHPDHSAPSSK
T3 sequence (P09483 31-630): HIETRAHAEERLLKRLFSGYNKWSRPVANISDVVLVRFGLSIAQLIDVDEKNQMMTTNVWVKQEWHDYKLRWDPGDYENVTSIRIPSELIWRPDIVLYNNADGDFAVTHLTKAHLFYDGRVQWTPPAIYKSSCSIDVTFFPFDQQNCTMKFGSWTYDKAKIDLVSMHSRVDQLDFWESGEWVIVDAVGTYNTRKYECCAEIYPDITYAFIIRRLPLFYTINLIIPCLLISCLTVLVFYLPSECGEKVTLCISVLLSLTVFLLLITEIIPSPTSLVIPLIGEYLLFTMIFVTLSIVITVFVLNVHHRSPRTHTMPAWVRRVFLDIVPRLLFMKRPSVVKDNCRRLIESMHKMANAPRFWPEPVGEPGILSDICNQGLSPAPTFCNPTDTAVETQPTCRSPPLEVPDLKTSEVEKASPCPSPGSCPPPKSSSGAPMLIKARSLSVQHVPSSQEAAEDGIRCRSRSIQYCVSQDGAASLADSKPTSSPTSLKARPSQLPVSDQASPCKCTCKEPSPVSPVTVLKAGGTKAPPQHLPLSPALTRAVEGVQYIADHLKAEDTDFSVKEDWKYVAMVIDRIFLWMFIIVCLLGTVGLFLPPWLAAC
T2 sequence (P02710 25-461): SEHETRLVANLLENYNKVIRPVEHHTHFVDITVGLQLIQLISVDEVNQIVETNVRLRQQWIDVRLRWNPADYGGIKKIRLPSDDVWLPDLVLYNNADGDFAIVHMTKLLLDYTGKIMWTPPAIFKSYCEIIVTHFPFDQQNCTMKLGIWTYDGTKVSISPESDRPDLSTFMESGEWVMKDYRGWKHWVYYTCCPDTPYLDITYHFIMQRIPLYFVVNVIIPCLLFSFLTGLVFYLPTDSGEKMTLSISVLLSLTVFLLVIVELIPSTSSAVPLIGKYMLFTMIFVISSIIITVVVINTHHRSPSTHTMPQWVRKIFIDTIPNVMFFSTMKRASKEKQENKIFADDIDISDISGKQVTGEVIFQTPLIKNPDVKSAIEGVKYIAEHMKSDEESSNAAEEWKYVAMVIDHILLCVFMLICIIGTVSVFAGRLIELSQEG
T2 sequence (P02712 25-493, further chain): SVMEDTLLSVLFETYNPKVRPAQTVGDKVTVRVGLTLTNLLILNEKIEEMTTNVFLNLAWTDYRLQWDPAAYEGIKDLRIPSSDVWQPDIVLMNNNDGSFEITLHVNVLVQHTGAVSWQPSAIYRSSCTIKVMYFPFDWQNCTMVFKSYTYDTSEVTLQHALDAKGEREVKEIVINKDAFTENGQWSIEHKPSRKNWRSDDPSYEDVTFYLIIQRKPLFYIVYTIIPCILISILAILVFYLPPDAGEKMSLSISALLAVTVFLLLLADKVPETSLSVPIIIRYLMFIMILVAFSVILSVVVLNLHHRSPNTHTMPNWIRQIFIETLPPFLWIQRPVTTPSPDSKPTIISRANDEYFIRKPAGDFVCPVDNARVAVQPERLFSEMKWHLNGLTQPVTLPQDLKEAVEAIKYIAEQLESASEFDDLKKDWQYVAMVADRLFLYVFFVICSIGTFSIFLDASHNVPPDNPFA
T2 sequence (P02718 22-522): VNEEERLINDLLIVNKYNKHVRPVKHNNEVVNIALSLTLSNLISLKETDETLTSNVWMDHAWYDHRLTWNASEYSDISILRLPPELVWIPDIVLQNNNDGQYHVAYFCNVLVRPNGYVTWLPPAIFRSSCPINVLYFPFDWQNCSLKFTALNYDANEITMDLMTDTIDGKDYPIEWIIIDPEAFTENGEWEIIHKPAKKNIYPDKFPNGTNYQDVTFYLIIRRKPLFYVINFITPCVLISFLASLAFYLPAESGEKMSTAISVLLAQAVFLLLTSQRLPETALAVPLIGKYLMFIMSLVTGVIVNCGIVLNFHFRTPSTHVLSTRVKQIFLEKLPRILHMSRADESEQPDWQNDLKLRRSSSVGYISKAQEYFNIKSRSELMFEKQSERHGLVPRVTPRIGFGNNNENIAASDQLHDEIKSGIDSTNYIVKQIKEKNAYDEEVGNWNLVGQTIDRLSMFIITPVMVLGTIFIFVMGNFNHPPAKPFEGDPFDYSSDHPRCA
T2 sequence (P02714 18-506): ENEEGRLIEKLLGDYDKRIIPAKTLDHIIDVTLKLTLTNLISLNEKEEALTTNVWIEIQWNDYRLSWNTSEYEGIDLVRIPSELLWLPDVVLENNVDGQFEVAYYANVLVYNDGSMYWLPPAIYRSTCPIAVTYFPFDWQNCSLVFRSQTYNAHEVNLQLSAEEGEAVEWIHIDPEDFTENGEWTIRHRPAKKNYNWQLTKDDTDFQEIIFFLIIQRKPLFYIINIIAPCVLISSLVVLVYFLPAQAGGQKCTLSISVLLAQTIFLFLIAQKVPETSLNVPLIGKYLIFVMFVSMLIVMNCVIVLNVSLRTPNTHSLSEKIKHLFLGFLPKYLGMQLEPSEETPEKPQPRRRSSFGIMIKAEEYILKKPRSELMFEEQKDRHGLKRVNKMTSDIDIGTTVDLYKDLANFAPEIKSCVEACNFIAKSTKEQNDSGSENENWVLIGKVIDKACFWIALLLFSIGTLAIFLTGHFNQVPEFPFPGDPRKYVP

Row | Compound | Ki (α3β4* nAChR) [µM] | Ki ((α1)2β1γδ nAChR) [µM] | Ki (α4β2* nAChR) [µM] | Ki (α7* nAChR) [µM]
1 | O=c1c(-c2ccccc2)ccc2n1C[C@@H]1CNC[C@H]2C1 [93e, 3-Phenyl-cytisine] | > 10 | > 10 | – | –
2 | O=c1c(-c2cccc([N+](=O)[O-])c2)ccc2n1C[C@@H]1CNC[C@H]2C1 [94e, 3-(3′-Nitro-phenyl)-cytisine] | > 2 | > 10 | 0.023 | > 10
3 | Cc1cccc(-c2ccc3n(c2=O)C[C@@H]2CNC[C@H]3C2)c1 [95e, 3-(3′-Methyl-phenyl)-cytisine] | > 10 | > 10 | 0.028 | > 10
4 | O=c1c(-c2cccc(C(F)(F)F)c2)ccc2n1C[C@@H]1CNC[C@H]2C1 [96e, 3-(3′-Trifluoromethyl-phenyl)-cytisine] | 3.7 | > 10 | 0.0083 | > 10
5 | O=c1c(-c2cccc(OC(F)(F)F)c2)ccc2n1C[C@@H]1CNC[C@H]2C1 [97e, 3-(3′-Trifluoromethoxy-phenyl)-cytisine] | > 10 | > 10 | 0.067 | > 10
6 | O=c1c(-c2cccc(Cl)c2)ccc2n1C[C@@H]1CNC[C@H]2C1 [98e, 3-(3′-Chloro-phenyl)-cytisine] | > 10 | > 10 | 0.199 | > 10
7 | O=c1c(-c2cccc(F)c2)ccc2n1C[C@@H]1CNC[C@H]2C1 [99e, 3-(3′-Fluoro-phenyl)-cytisine] | 1.2 | > 10 | 0.0057 | > 10
8 | O=c1c(-c2cccc(-c3ccccc3)c2)ccc2n1C[C@@H]1CNC[C@H]2C1 [100e, 3-(Biphenyl-3′-yl)-cytisine] | > 10 | > 10 | 0.2 | > 10
9 | O=c1ccc(-c2ccccc2)c2n1C[C@@H]1CNC[C@H]2C1 [103e, 5-Phenyl-cytisine] | > 10 | > 10 | 0.045 | > 10
10 | O=c1ccc(-c2cccc([N+](=O)[O-])c2)c2n1C[C@@H]1CNC[C@H]2C1 [104e, 5-(3′-Nitro-phenyl)-cytisine] | 0.481 | > 10 | 0.0037 | > 10
11 | Cc1cccc(-c2ccc(=O)n3c2[C@H]2CNC[C@H](C2)C3)c1 [105e, 5-(3′-Methyl-phenyl)-cytisine] | > 10 | > 10 | 0.024 | > 10
12 | O=c1ccc(-c2cccc(C(F)(F)F)c2)c2n1C[C@@H]1CNC[C@H]2C1 [106e, 5-(3′-Trifluoromethyl-phenyl)-cytisine] | > 10 | > 10 | 0.055 | > 10
13 | O=c1ccc(-c2cccc(OC(F)(F)F)c2)c2n1C[C@@H]1CNC[C@H]2C1 [107e, 5-(3′-Trifluoromethoxy-phenyl)-cytisine] | > 10 | > 10 | 0.023 | > 10
14 | O=c1ccc(-c2cccc(Cl)c2)c2n1C[C@@H]1CNC[C@H]2C1 [108e, 5-(3′-Chloro-phenyl)-cytisine] | > 10 | > 10 | 0.17 | > 10
15 | O=c1ccc(-c2cccc(F)c2)c2n1C[C@@H]1CNC[C@H]2C1 [109e, 5-(3′-Fluoro-phenyl)-cytisine] | > 2 | > 10 | 0.3 | > 10
16 | O=c1ccc(-c2cccc(-c3ccccc3)c2)c2n1C[C@@H]1CNC[C@H]2C1 [110e, 5-(Biphenyl-3′-yl)-cytisine] | > 10 | > 10 | 0.19 | > 10
17 | O=c1c(-c2ccc3[nH]ccc3c2)ccc2n1C[C@@H]1CNC[C@H]2C1 [117e, 3-(1H-Indol-5′-yl)-cytisine] | > 10 | > 10 | 0.853 | > 10
18 | O=c1c(-c2ccc3c(c2)OCO3)ccc2n1C[C@@H]1CNC[C@H]2C1 [118e, 3-(3′,4′-Methylenedioxy-phenyl)-cytisine] | > 10 | > 10 | – | –
19 | O=c1c(-c2cccnc2)ccc2n1CC1CNCC2C1 (centres unmarked) [119e, 3-(Pyridin-3′-yl)-cytisine] | – | – | – | > 10
20 | O=c1c(-c2ccncc2)ccc2n1C[C@@H]1CNC[C@H]2C1 [120e, 3-(Pyridin-4′-yl)-cytisine] | – | > 10 | – | –
21 | O=c1c(-c2cccc3cccnc23)ccc2n1C[C@@H]1CNC[C@H]2C1 [121e, 3-Quinolin-8′-yl-cytisine] | > 10 | > 10 | 0.095 | > 10
22 | Cn1cc(-c2ccc3n(c2=O)CC2CNCC3C2)cn1 (centres unmarked) [122e, 3-(1-Methyl-1H-pyrazol-4′-yl)-cytisine] | 0.033 | > 5 | 0.000177 | > 10
23 | O=c1ccc(-c2ccc3[nH]ccc3c2)c2n1C[C@@H]1CNC[C@H]2C1 [123e, (1H-Indol-5′-yl)-cytisine] | > 10 | > 10 | 0.0204 | > 10
24 | O=c1ccc(-c2ccc3c(c2)OCO3)c2n1C[C@@H]1CNC[C@H]2C1 [124e, 5-(3′,4′-Methylenedioxy-phenyl)-cytisine] | > 10 | > 10 | 0.096 | > 10
25 | O=c1ccc(-c2cccnc2)c2n1C[C@@H]1CNC[C@H]2C1 [125e, 5-(Pyridin-3′-yl)-cytisine] | 4.3 | > 10 | 0.0109 | > 10
26 | Cn1cc(-c2ccc(=O)n3c2[C@H]2CNC[C@H](C2)C3)cn1 [126e, 5-(1-Methyl-1H-pyrazol-4′-yl)-cytisine] | 0.656 | > 10 | 0.0022 | > 10
27 | O=c1c(-c2ccccc2)cc(Br)c2n1C[C@@H]1CNC[C@H]2C1 [128e, 5-Bromo-3-phenyl-cytisine] | > 5 | > 10 | 0.131 | > 10
28 | O=c1c(-c2cccnc2)cc(Br)c2n1C[C@@H]1CNC[C@H]2C1 [129e, 5-Bromo-3-(pyridin-3′-yl)-cytisine] | > 2 | > 10 | 0.092 | > 10
29 | O=c1c(-c2cccnc2)ccc2n1CC1CNCC2C1 (centres unmarked) [drawing 100] | – | > 10 | 0.00091 | –
